Data on 38 molecules can be found in patent US20230075856A1, “CYCLIC SULFAMIDE COMPOUNDS FOR TREATMENT OF HBV” (Assembly Biosciences, Inc., priority 2018, published 2023).

A word on the EC50: it is the concentration at which the effect is half-maximal.

The test system of one assay is HBV viral load production from HepAD38 cells. Kind of assay: Viral production from HepAD38 cells: viral load in supernatant by qPCR of the HBV core sequence. It is filed as cell-based. The following applies: 5 days incubation, qPCR of supernatant HBV DNA vs DMSO control, read-out: viral load lowering EC50 (Activity). In short, it runs like this:
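HepAD38 cells seeded at 50,000/well in tetracycline-free medium with 2% FBS, treated with compounds (final top concentration 10 μM) for 5 days at 37 °C. Supernatant HBV DNA quantified by TaqMan qPCR of core sequence against HBV DNA standards, relative to DMSO controls; EC50 by four-parameter logistic fit.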
(Quantitative PCR measures a nucleic acid by following its amplification.)
As to `CCN1CCC(Oc2ccc(-c3ncc(CNC(=O)C4CC(C(=O)Nc5ccc(F)c(Cl)c5)N(C)S(=O)(=O)N4)s3)cc2)CC1` (single isomer, unassigned) [Compound 921-ISOMER-B, N3-(3-chloro-4-fluoro-phenyl)-N5-[[2-[4-[(1-ethyl-4-piperidyl)oxy]phenyl]thiazol-5-yl]methyl]-2-methyl-1,1-dioxo-1,2,6-thiadiazinane-3,5-dicarboxamide], the EC50 was in the range of 50 to 100 nM. As to `CN1C(C(=O)Nc2ccc(F)c(Cl)c2)CC(C(=O)NCc2cnc(-c3ccc(C#N)cc3F)s2)NS1(=O)=O` (single isomer, unassigned) [Compound 920-ISOMER-B, N3-(3-chloro-4-fluoro-phenyl)-N5-[[2-(4-cyano-2-fluoro-phenyl)thiazol-5-yl]methyl]-2-methyl-1,1-dioxo-1,2,6-thiadiazinane-3,5-dicarboxamide], the EC50 was < 50 nM. The same measure, in the same setting: to `CN1C(C(=O)Nc2ccc(F)c(Cl)c2)CC(C(=O)NC2CCN(c3ccccn3)CC2)NS1(=O)=O` (single isomer, unassigned) [Compound 769-ISOMER-B, N3-(3-chloro-4-fluoro-phenyl)-2-methyl-1,1-dioxo-N5-[1-(2-pyridyl)-4-piperidyl]-1,2,6-thiadiazinane-3,5-dicarboxamide] belongs 100 to 10000 nM; to `CN1C(C(=O)Nc2ccc(F)c(Cl)c2)CC(C(=O)NCc2cn(-c3ccccc3)cn2)NS1(=O)=O` (single isomer, unassigned) [1145-ISOMER-B, N3-(3-chloro-4-fluoro-phenyl)-2-methyl-1,1-dioxo-N5-[(1-phenylimidazol-4-yl)methyl]-1,2,6-thiadiazinane-3,5-dicarboxamide], 100 to 10000 nM; to `CN1C(C(=O)Nc2ccc(F)c(Cl)c2)CC(C(=O)NC2CCCc3nc(-c4ccc(OCCN5CCCCC5)cc4)sc32)NS1(=O)=O` (single isomer, unassigned; isomer-d) [Compound 948-ISOMER-D], < 50 nM. The same measure, in the same setting: to “N3-(3-chloro-4-fluoro-phenyl)-2-methyl-1,1-(trifluoromethyl)phenyl]ethyl]-1,2,6-thiadiazinane-3,5-dicarboxamide [493-S-ISOMER-B]” belongs 100 to 10000 nM; to `CN1C(C(=O)Nc2ccc(F)c(Cl)c2)CC(C(=O)NCc2ncc(-c3ccc(F)cc3)s2)NS1(=O)=O` (single isomer, unassigned) [1153-ISOMER-B, N3-(3-chloro-4-fluoro-phenyl)-N5-[[5-(4-fluorophenyl)thiazol-2-yl]methyl]-2-methyl-1,1-dioxo-1,2,6-thiadiazinane-3,5-dicarboxamide], 100 to 10000 nM; to `CN(C)CCCCc1cnn(-c2ncc(CNC(=O)C3CC(C(=O)Nc4ccc(F)c(Cl)c4)N(C)S(=O)(=O)N3)s2)c1` (single isomer, unassigned) [1197-ISOMER-B, N3-(3-chloro-4-fluoro-phenyl)-N5-[[2-[4-[4-(dimethylamino)butyl]pyrazol-1-yl]thiazol-5-yl]methyl]-2-methyl-1,1-dioxo-1,2,6-thiadiazinane-3,5-dicarboxamide], 50 to 100 nM. Still for that read-out and setting: to `Cc1c(CNC(=O)C2CC(C(=O)Nc3ccc(F)c(Cl)c3)N(C)S(=O)(=O)N2)nnn1-c1ccccc1` (single isomer, unassigned; isomer-b) [1148-ISOMER-B, N3-(3-chloro-4-fluoro-phenyl)-2-methyl-N5-[(5-methyl-1-phenyl-triazol-4-yl)methyl]-1,1-dioxo-1,2,6-thiadiazinane-3,5-dicarboxamide] belongs 100 to 10000 nM.

Staying with this assay, now noted: Hepatitis B virus, HePAD38, 120 h, 5 days incubation, qPCR of supernatant HBV DNA vs DMSO control, read-out: viral load lowering EC50 (Activity).
Turning to `Cc1cccnc1N1CCC(NC(=O)C2CC(C(=O)Nc3ccc(F)c(Cl)c3)N(C)S(=O)(=O)N2)CC1` (centres unmarked) [Compound 1074], the concentration for a half-maximal effect (EC50) is < 50 nM. With `CN1C(C(=O)Nc2ccc(F)c(Cl)c2)CC(C(=O)NCc2cccc(C(F)(F)F)c2)NS1(=O)=O` (centres unmarked) [Compound 724], the EC50 lay in the range of 50 to 100 nM. As to `CN1C(C(=O)Nc2ccc(F)c(Cl)c2)CC(C(=O)NCc2cnc(-c3ccc(OCCN4CCCCC4)cc3)s2)NS1(=O)=O` (centres unmarked) [Compound 922], the EC50 is < 50 nM. Same read-out and setting: to `CN1C(C(=O)Nc2ccc(F)c(Cl)c2)CC(C(=O)NC2CCN(S(C)(=O)=O)CC2)NS1(=O)=O` (centres unmarked) [Compound 710] belongs 100 to 10000 nM; to `Cc1cn(-c2ccccc2)nc1CNC(=O)C1CC(C(=O)Nc2ccnc(Cl)c2)N(C)S(=O)(=O)N1` (centres unmarked) [Compound 1135], < 50 nM; to `CN1C(C(=O)Nc2ccc(F)c(Cl)c2)CC(C(=O)NCc2ncc(-c3ccccc3)s2)NS1(=O)=O` (single isomer, unassigned) [Compound 931-ISOMER-A, N3-(3-chloro-4-fluoro-phenyl)-2-methyl-1,1-dioxo-N5-[(5-phenylthiazol-2-yl)methyl]-1,2,6-thiadiazinane-3,5-dicarboxamide], 100 to 10000 nM. Same read-out and setting: to `CN1C(C(=O)Nc2ccc(F)c(Cl)c2)CC(C(=O)NCc2ccccc2-c2cn(C)cn2)NS1(=O)=O` (single isomer, unassigned) [Compound 823-ISOMER-B, N3-(3-chloro-4-fluoro-phenyl)-2-methyl-N5-[[2-(1-methylimidazol-4-yl)phenyl]methyl]-1,1-dioxo-1,2,6-thiadiazinane-3,5-dicarboxamide] belongs 100 to 10000 nM; to `COc1cccc(CNC(=O)C2CC(C(=O)Nc3ccc(F)c(C#N)c3)N(C)S(=O)(=O)N2)c1` (centres unmarked) [Compound 835], 50 to 100 nM; to `CN1C(C(=O)Nc2ccc(F)c(Cl)c2)CC(C(=O)NCc2cnc(-c3ccccc3Cl)s2)NS1(=O)=O` (single isomer, unassigned) [Compound 912-ISOMER-A, N3-(3-chloro-4-fluoro-phenyl)-N5-[[2-(2-chlorophenyl)thiazol-5-yl]methyl]-2-methyl-1,1-dioxo-1,2,6-thiadiazinane-3,5-dicarboxamide], 100 to 10000 nM. On the same count and under the same terms, to `CCN1C(C(=O)Nc2ccc(F)c(Cl)c2)CC(C(=O)NC2CCN(C(=O)OC)CC2)NS1(=O)=O` (centres unmarked) [Compound 890] belongs < 50 nM; to `CN1C(C(=O)Nc2ccc(F)c(Cl)c2)CC(C(=O)NCc2cnc(-c3ccc(C#CCCO)cc3)s2)NS1(=O)=O` (centres unmarked) [Compound 926], < 50 nM. For the molecule `CN1C(C(=O)Nc2ccc(F)c(Cl)c2)CC(C(=O)NCc2ncc(-c3ccc(O)cc3)s2)NS1(=O)=O` (centres unmarked) [Compound 1009], the EC50 was < 50 nM. The same measure, in the same setting: to `COC(=O)N1CCC(NC(=O)C2CC(C(=O)Nc3ccc(F)c(Cl)c3)N(C)S(=O)(=O)N2)CC1` (centres unmarked) [Compound 477] belongs < 50 nM; to `CN1C(C(=O)Nc2ccc(F)c(Cl)c2)CC(C(=O)NCc2nc3ccc(O)cc3s2)NS1(=O)=O` (centres unmarked) [Compound 1010], < 50 nM. Turning to `CN1C(C(=O)Nc2ccc(F)c(Cl)c2)CC(C(=O)N[C@H](c2ccccc2)c2cnc(Cl)s2)NS1(=O)=O` (single isomer, unassigned) [1066-ISOMER-A], the EC50 lay within 100 to 10000 nM.

Turning to `CN1C(C(=O)Nc2ccc(F)c(Cl)c2)CC(C(=O)NC(c2ccccc2)c2cnc(Cl)s2)NS1(=O)=O` (centres unmarked) [Compound 1066], the EC50 was < 50 nM. Still for that read-out and setting: to `CC(NC(=O)C1CC(C(=O)Nc2ccc(F)c(Cl)c2)N(C)S(=O)(=O)N1)c1cnc(Cl)s1` (centres unmarked) [Compound 1030] belongs < 50 nM; to `CN1C(C(=O)Nc2ccc(F)c(Cl)c2)CC(C(=O)NC(c2ccccc2)c2cnc(-c3ccccc3F)s2)NS1(=O)=O` (centres unmarked) [Compound 1084], < 50 nM; to `CN1C(C(=O)Nc2ccc(F)c(C#N)c2)CC(C(=O)NCc2cnc(-c3ccccc3)s2)NS1(=O)=O` (centres unmarked) [Compound 830], 50 to 100 nM.

Turning to `CN1C(C(=O)Nc2ccc(F)c(Cl)c2)CC(C(=O)NCc2sc(-c3ccccc3F)nc2C(F)(F)F)NS1(=O)=O` (centres unmarked) [Compound 1082], the EC50 was < 50 nM. Turning to `CN1C(C(=O)Nc2ccc(F)c(Cl)c2)CC(C(=O)NC2CCN(c3cc(Cl)ccn3)CC2)NS1(=O)=O` (single isomer, unassigned) [Compound 974-ISOMER-A, N3-(3-chloro-4-fluoro-phenyl)-N5-[1-(4-chloro-2-pyridyl)-4-piperidyl]-2-methyl-1,1-dioxo-1,2,6-thiadiazinane-3,5-dicarboxamide], the EC50 was < 50 nM.

For the molecule `CCN1C(C(=O)Nc2ccc(F)c(Cl)c2)CC(C(=O)NC2CCN(C(=O)OC)CC2)NS1(=O)=O` (single isomer, unassigned) [Compound 890-ISOMER-A, methyl 4-[[5-[(3-chloro-4-fluoro-phenyl)carbamoyl]-6-ethyl-1,1-dioxo-1,2,6-thiadiazinane-3-carbonyl]amino]piperidine-1-carboxylate], the EC50 was < 50 nM.

For the molecule `CN1C(C(=O)Nc2ccc(F)c(Cl)c2)CC(C(=O)NCc2cnc(-n3ccnn3)s2)NS1(=O)=O` (centres unmarked) [Compound 1158], the concentration for a half-maximal effect (EC50) is < 50 nM.

Take `Cc1nc(-c2ccc(OCCN3CCCCC3)cc2)sc1CNC(=O)C1CC(C(=O)Nc2ccc(F)c(Cl)c2)N(C)S(=O)(=O)N1` (single isomer, unassigned) [1087-ISOMER-A, N3-(3-chloro-4-fluoro-phenyl)-2-methyl-N5-[[4-methyl-2-[4-[2-(1-piperidyl)ethoxy]phenyl]thiazol-5-yl]methyl]-1,1-dioxo-1,2,6-thiadiazinane-3,5-dicarboxamide]: the EC50 is < 50 nM. Take `Cc1nc(-c2ccccc2)sc1CNC(=O)C1CC(C(=O)Nc2ccnc(Cl)c2)N(C)S(=O)(=O)N1` (centres unmarked) [Compound 1137]: the EC50 is < 50 nM. On the same count and under the same terms, to `C[C@@H](NC(=O)C1CC(C(=O)Nc2ccc(F)c(C#N)c2)N(C)S(=O)(=O)N1)c1ccc(F)cc1` (some centres unmarked) [Compound 776] belongs 100 to 10000 nM. Take `CN1CCC(Oc2ccc(-c3ncc(CNC(=O)C4CC(C(=O)Nc5ccc(F)c(Cl)c5)N(C)S(=O)(=O)N4)s3)cc2)CC1` (centres unmarked) [Compound 979]: the EC50 is < 50 nM. As for `CN1C(C(=O)Nc2ccc(F)c(C#N)c2)CC(C(=O)NCc2ccc(Cl)cc2)NS1(=O)=O` (centres unmarked) [Compound 836], the EC50 lay within 50 to 100 nM. On the same count and under the same terms, to `CCc1nc(CNC(=O)C2CC(C(=O)Nc3ccc(F)c(Cl)c3)N(C)S(=O)(=O)N2)cs1` (centres unmarked) [Compound 742] belongs 50 to 100 nM.
